These results are taken from ChEMBL document CHEMBL5241068, “Biguanides: Species with versatile therapeutic applications” (Eur J Med Chem, 2021).

Series [1] can be described thus: Inhibition of Brugia malayi DHFR.
Another series has as its system FaDu. Kind of series: Anticancer activity against human FaDu cells. The class given is functional, cell-based.
The subject of another series is C6661. Kind of series: Anticancer activity against human C6661 cells. The format is functional, cell-based.
The next series has as its system T47D. Kind of series: Antiproliferative activity against human T47D cells in presence of phenformin. The format is functional, cell-based.
For a further series, the system named is SK-OV-3. Kind of series: Antiproliferative activity against human SK-OV-3 cells incubated for 72 hrs by MTT assay. Particulars: SK-OV-3, 72 h. The class given is functional, cell-based. For orientation: Formazan colour is commonly taken as a measure of viable cells.
A further series has as its system IGROV-1. Kind of series: Antiproliferative activity against human IGROV-1 cells incubated for 72 hrs by MTT assay. The class given is functional, cell-based. Particulars: IGROV-1, 72 h.
The subject of another series is MDA-MB-231. Kind of series: Antiproliferative activity against human MDA-MB-231 cells in presence of phenformin. The class given is functional, cell-based.
Series [2] concerns the target Replicase polyprotein 1ab (Severe acute respiratory syndrome coronavirus 2) (UniProt P0DTD1). Kind of series: Binding affinity to SARS CoV-2 3CL protease assessed as gibbs free energy change.
Series [3] is described as follows: Solubility of compound at pH 8. The class given is physicochemical. To be noted: buffer.
Another series has as its system A2780. Kind of series: Antiproliferative activity against human A2780 cells. The format is functional, cell-based.
Series [4] is described as follows: Selectivity index, ratio of IC50 for rat liver DHFR to IC50 for Toxoplasma gondii DHFR.
Series [5] can be described thus: Inhibition of Toxoplasma gondii DHFR.
A short description of series [6]: Lipophilicity, logP of the compound. The class given is physicochemical. Particulars: octanol/water.
The nature of series [7]: Inhibition of quorum sensing system in Chromobacterium violaceum CV12472.
Another series deals with Escherichia coli. Kind of series: Bactericidal activity against Escherichia coli assessed as time required to kill the bacteria at 95 uM. The class given is functional.
A short description of series [8]: Cmax in mouse at 1 mg/kg, po. The format is ADME, organism-based. Further details: dose 1 mg/kg, route po. Particulars: in vivo.
Series [9] in a line: Elimination half life in mouse at 1 mg/kg, po. The format is ADME, organism-based. To be noted: in vivo, read-out: beta t1/2 (converted).

pEC50, pIC50: −log10 of the molar value. A value given as a limit tells only on which side of the number the result lay.

For orientation: pIC50 means −log10 of the IC50, conventionally taken in molar units. With `NC(N)=N/C(N)=N/c1ccc(OCc2cccc(Cl)c2)cc1`, in series [1], the pIC50 is 4.78.

In series [1], `COc1cc(Cc2cnc(N)nc2N)cc(OC)c1OC` [TRIMETHOPRIM] showed a pIC50 of 4.89.

By pEC50 is commonly meant −log10 of the EC50, conventionally taken in molar units. A high value points to a small EC50. In the case of `CCCC[C@@H](CC)CNC(=N)NC(=N)NCCCCCCNC(=N)NC(=N)NC[C@H](CC)CCCC`, the pEC50 with FaDu is 5.74; with C6661 it was 5.59.

Take `NC(N)=N/C(N)=N/c1ccc(OCc2ccc(-c3ccccc3)cc2)cc1`: the pIC50 in series [1] is > 5.23.

In the case of `CN(C)C(=N)NC(=N)N` [METFORMIN], the pIC50 in the series on T47D was 2.03; in the series with SK-OV-3, 3.82; in the series on IGROV-1 it was 3.07; in the series with MDA-MB-231, 2.40. The deltaG in series [2] was -6.72 kcal/mol.

`CC1(C)N=C(N)N=C(N)N1c1ccc(OCc2ccc(Cl)cc2Cl)cc1` had a pIC50 in [1] of 5.24.

What is called solubility is how much of the substance goes into solution per volume. A low value points to little dissolved substance. The compound `Cl.N=C(N)NC(=N)N1CCOCC1` yielded a solubility in [3] of 360 mg/mL. For the same compound, the deltaG in series [2] was -2.11 kcal/mol.

Compound `NC(N)=N/C(N)=N/CCOc1ccn(-c2ccc(Cl)cc2)n1` gave a pIC50 with A2780 of 5.16.

The compound `NC(N)=N/C(N)=N/c1ccc(OCc2ccc(Cl)cc2Cl)cc1` showed a pIC50 in [1] of 5.20.

With `CC1(C)N=C(N)N=C(N)N1c1ccc(OCc2ccc(-c3ccccc3)cc2)cc1`, the Ratio IC50 in series [4] was 2.15. In series [5], this compound had a pIC50 of 7.92.

A word on the logP: it is the decadic logarithm of the partition coefficient of the neutral form, usually between octanol and water. High values mean a more lipophilic compound, low ones a more hydrophilic compound. For `Clc1ccc(Nc2ccnc(Nc3ccc(Cl)cc3)n2)cc1`, in series [6], the logP came to 5.5.

In turn, `CCc1nc(N)nc(N)c1-c1ccc(Cl)cc1` [PYRIMETHAMINE] gave a pIC50 in series [1] of 4.70.

`N=C(N=C(N)N)N(Cc1ccccc1)c1ccccc1` showed a pIC50 in series [7] of 3.75.

For `NC(N)=N/C(N)=N/Cc1ccco1`, the negative logarithm of the IC50 (pIC50) in the series with SK-OV-3 is 3.42; in the series with IGROV-1 it was 3.82.

Regarding `C=CC(=O)OCCc1ccc(/N=C(N)/N=C(\N)Nc2ccc(Cl)cc2)cc1.Cl`, the Time in the series on Escherichia coli is listed as 30 min.

Usually Cmax stands for the maximum level reached in the sampled fluid or tissue. In turn, `CN(C)C(=N)N=C(N)N` [METFORMIN] yielded a Cmax in series [8] of 2000 ng/mL. The half-life in series [9] was 6 h.

For the compound `N=C(N=C(N)N)N(c1ccccc1)c1ccc(N)cc1`, the pIC50 in series [7] is 3.92.

In [6], `N=C(NCCCCCCCCCCNC(=N)Nc1ncc(Cl)cn1)Nc1ncc(Cl)cn1` yielded a logP of 5.5.

As for `N=C(NCCCCCCCCCCCCNC(=N)Nc1ncc(Cl)cn1)Nc1ncc(Cl)cn1`, in [6], the logP turned out to be 5.5.
